Test results reported in patent US6001799A, “Method of treating hepatitis C in non-responders to interferon treatment” (SciClone Pharmaceuticals, Inc., priority 1993, dated 1999).
Where no end group is shown, it is not given here.

How the values were obtained:
[1] = tested on: response to influenza vaccine; conditions: cited from earlier work
hepatitis B virus (HBV) = conditions: treated for a year, cited from earlier work
[2] = tested on: nonsmall cell lung cancer; conditions: both THNα1 treatment groups; cited from earlier work
Hepatitis C = assay: Treatment of Hepatitis C patients with Thymosin α-1 during α-IFN administration (Example 6); format: in vivo, human; conditions: after 6 months
Experimental: The course of the disease and its response to drug treatments may be followed by clinical examination and laboratory findings.
Efficacy of Thymosin α-1 for treatment of Hepatitis C was shown in two Hepatitis C patients who were previous non-responders to α-interferon. These two patients were treated with Thymosin α-1 by subcutaneous injection of 1 mg thereof twice weekly, during administration three times weekly of 2 million units of α-IFN. […] In three additional Hepatitis C patients treated as above, serum ALT levels were reduced 50% after 6 months.

[3] = tested on: Woodchuck Hepatitis Virus; conditions: infected woodchuck; cited from earlier work
HCV-related diseases = conditions: in vivo; cited from earlier work

| Molecule | antibody to influenza ([1]; s.c. twice weekly from vaccination, six weeks post-vaccine) | toxicity in drug recipients ([1]; s.c. twice weekly) | serum ALT (hepatitis B virus (HBV); THNα1 5 patients, TF-5 2 patients) | patients initially positive for HBSAg who cleared this antigen (hepatitis B virus (HBV); THNα1 and TF-5 patients pooled) | patients with reduced levels of serum HBV DNA (hepatitis B virus (HBV); THNα1 and TF-5 patients pooled) | relapse-free survival and overall survival versus placebo group [2] | reduction of serum ALT (threshold not achieved) (Hepatitis C; six additional Hepatitis C patients, same regimen with α-IFN) | response to treatment (serum ALT levels reduced to normal) (Hepatitis C; six other Hepatitis C patients, same regimen with α-IFN) | serum ALT levels reduced (Hepatitis C; three additional Hepatitis C patients, same regimen with α-IFN) | reduction of serum alanine transaminase (ALT) (Hepatitis C; two patients, previous non-responders to α-interferon, 1 mg s.c. twice weekly during 2 million units α-IFN three times weekly) | clinical parameters [3] | viral DNA replication [3] | effectiveness in halting or slowing progression of HCV-related diseases (HCV-related diseases) |
| --- | --- | --- | --- | --- | --- | --- | --- | --- | --- | --- | --- | --- | --- |
| Thymosin α-1 (SDAAVDTSSEITTKDLKEKKEVVEEAEN; ends and bridges not checked; UniProt P06454 2-29, looked up) | higher levels of antibody to influenza than controls | No clinical or biochemical toxicity | marked decrease | 5 of 6 | 6 of the 7 | greater | < 50% | complete response | 50% | 50% | no improvement | suppressed viral DNA replication | – |
| Nc1nc2c(ncn2COCCO)c(=O)[nH]1 [acyclovir] | – | – | – | – | – | – | – | – | – | – | – | – | ineffective |
